This is an account of results in PubChem BioAssay AID256 (DTP/NCI, 2004).

Several values for one entry are separate records, joined by “and”; a condition that tells them apart may be missing. Equal entries are not always repeated. Toxic doses and inconclusive results are not listed.

The test system of this experiment is CD2F1 mice, L1210 leukemia ip, survival T/C. As to the kind of experiment: NCI In Vivo Anticancer Drug Screen. Data for tumor model L1210 Leukemia (intraperitoneal) in CD2F1 (CDF1) mice. The note with it: higher = longer survival. An outline of the steps:
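Transplantable tumor in mice; compound-treated vs vehicle-treated groups. Read-out = treated/control ratio of the measured endpoint.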

[1] abbreviates: endpoint: mean survival time, dose: 100.0 mg/kg/injection, schedule: Q01DX009 (ip), vehicle: saline with Tween-80.
Setting [2] is: endpoint: mean survival time, dose: 100.0 mg/kg/injection, schedule: Q04DX003 (ip), vehicle: saline with Tween-80.
The mark [3] stands for this setting: endpoint: mean survival time, dose: 200.0 mg/kg/injection, schedule: Q01DX009 (ip), vehicle: saline with Tween-80.
[4] abbreviates: endpoint: mean survival time, dose: 200.0 mg/kg/injection, schedule: Q04DX003 (ip), vehicle: saline with Tween-80.
The mark [5] stands for this setting: endpoint: mean survival time, dose: 400.0 mg/kg/injection, schedule: Q04DX003 (ip), vehicle: saline with Tween-80.
Where [6] appears, read: endpoint: mean survival time, dose: 75.0 mg/kg/injection, schedule: Q01DX001 (ip), vehicle: other.
Where [7] appears, read: endpoint: mean survival time, dose: 150.0 mg/kg/injection, schedule: Q01DX001 (ip), vehicle: other.
Setting [8] is: endpoint: mean survival time, dose: 50.0 mg/kg/injection, schedule: Q01DX001 (ip), vehicle: saline with Tween-80.
[9] abbreviates: endpoint: mean survival time, dose: 50.0 mg/kg/injection, schedule: Q01DX009 (ip), vehicle: saline with Tween-80.
The mark [10] stands for this setting: endpoint: mean survival time, dose: 100.0 mg/kg/injection, schedule: Q01DX001 (ip), vehicle: saline with Tween-80.
[11] abbreviates: endpoint: mean survival time, dose: 25.0 mg/kg/injection, schedule: Q01DX009 (ip), vehicle: saline with Tween-80.

For `Cc1c(C(=O)c2no[n+]([O-])c2C(=O)c2c(C)c([N+](=O)[O-])c(C)c([N+](=O)[O-])c2C)c(C)c([N+](=O)[O-])c(C)c1[N+](=O)[O-]`, the T/C by setting is: under setting [1], 87 % of control; under setting [2], 102 % of control; under setting [3], 96 % of control; under setting [4], 88 % of control; (endpoint: mean survival time, dose: 400.0 mg/kg/injection, schedule: Q01DX009 (ip), vehicle: saline with Tween-80) 88 % of control; under setting [5], 98 % of control.

Consider `CCN1C(=O)CSC1=S`, for which the T/C is, setting by setting: (endpoint: mean survival time, dose: 50.0 mg/kg/injection, schedule: Q01DX009 (ip), vehicle: other) 88 % of control; (endpoint: mean survival time, dose: 100.0 mg/kg/injection, schedule: Q01DX001 (ip), vehicle: other) 94 % of control; (endpoint: mean survival time, dose: 100.0 mg/kg/injection, schedule: Q01DX009 (ip), vehicle: other) 108 % of control; (endpoint: mean survival time, dose: 100.0 mg/kg/injection, schedule: Q04DX003 (ip), vehicle: other) 95 % of control; (endpoint: mean survival time, dose: 200.0 mg/kg/injection, schedule: Q01DX001 (ip), vehicle: other) 93 % of control; (endpoint: mean survival time, dose: 200.0 mg/kg/injection, schedule: Q01DX009 (ip), vehicle: other) 95 % of control. Besides, the T/C reads like this: (endpoint: mean survival time, dose: 200.0 mg/kg/injection, schedule: Q04DX003 (ip), vehicle: other) 93 % of control; (endpoint: mean survival time, dose: 400.0 mg/kg/injection, schedule: Q01DX001 (ip), vehicle: other) 91 % of control.

For the compound `CC1CCC(NC(=O)NCCF)CC1` (configuration not stated), the T/C reads like this: under setting [6], 100 % of control; under setting [7], 115 % of control.

As to `COc1ccc(/C=C2\N=C(c3ccccc3)OC2=O)cc1OC`, the T/C is 103 % of control (endpoint: mean survival time, dose: 100.0 mg/kg/injection, schedule: Q01DX009 (ip), vehicle: saline); 98 % of control (endpoint: mean survival time, dose: 200.0 mg/kg/injection, schedule: Q01DX009 (ip), vehicle: saline); 98 % of control (endpoint: mean survival time, dose: 400.0 mg/kg/injection, schedule: Q01DX009 (ip), vehicle: saline).

For `CC(C)C(O)(C(=O)O)C(C)O` (configuration not stated), the T/C reads like this: (endpoint: mean survival time, dose: 12.5 mg/kg/injection, schedule: Q01DX009 (ip), vehicle: water) 96 % of control; (endpoint: mean survival time, dose: 25.0 mg/kg/injection, schedule: Q01DX009 (ip), vehicle: water) 94 % of control; (endpoint: mean survival time, dose: 50.0 mg/kg/injection, schedule: Q01DX009 (ip), vehicle: water) 88 % of control; (endpoint: mean survival time, dose: 100.0 mg/kg/injection, schedule: Q01DX009 (ip), vehicle: water) 89 % of control.

Consider `[Cl][Pt+2][Cl].[NH-]CC(O)C[NH-]`, for which the T/C runs as follows: (endpoint: median survival time, dose: 5.0 mg/kg/injection, schedule: Q04DX003 (ip), vehicle: saline) 108 % of control; (endpoint: median survival time, dose: 10.0 mg/kg/injection, schedule: Q04DX003 (ip), vehicle: saline) 103 % of control; (endpoint: median survival time, dose: 20.0 mg/kg/injection, schedule: Q04DX003 (ip), vehicle: saline) 105 % of control; (endpoint: median survival time, dose: 40.0 mg/kg/injection, schedule: Q04DX003 (ip), vehicle: saline) 108 % of control.

As for `O=C1c2ccccc2C(=O)N1CCS(=O)(=O)Cl`, the T/C runs as follows: under setting [8], 100 % of control; under setting [9], 95 % of control and 101 % of control; (endpoint: mean survival time, dose: 50.0 mg/kg/injection, schedule: Q04DX002 (ip), vehicle: saline with Tween-80) 97 % of control and 108 % of control; (endpoint: mean survival time, dose: 50.0 mg/kg/injection, schedule: Q04DX003 (ip), vehicle: saline with Tween-80) 98 % of control; under setting [10], 97 % of control; under setting [1], 96 % of control and 101 % of control. For the same compound, the T/C was 96 % of control and 100 % of control (endpoint: mean survival time, dose: 100.0 mg/kg/injection, schedule: Q04DX002 (ip), vehicle: saline with Tween-80); 98 % of control under setting [2]; 98 % of control (endpoint: mean survival time, dose: 200.0 mg/kg/injection, schedule: Q01DX001 (ip), vehicle: saline with Tween-80); 93 % of control under setting [3]; 100 % of control and 101 % of control (endpoint: mean survival time, dose: 200.0 mg/kg/injection, schedule: Q04DX002 (ip), vehicle: saline with Tween-80); 101 % of control under setting [4].

As to `COc1c(C)c(Br)c(OC)c2ccccc12`, the T/C is, setting by setting: under setting [2], 94 % of control; under setting [4], 94 % of control; under setting [5], 100 % of control.

As to `Oc1ccc(NC(=S)Nc2ccccc2)cc1`, the T/C runs as follows: (endpoint: mean survival time, dose: 100.0 mg/kg/injection, schedule: Q01DX001 (ip), vehicle: saline) 98 % of control; (endpoint: mean survival time, dose: 200.0 mg/kg/injection, schedule: Q01DX001 (ip), vehicle: saline) 98 % of control; (endpoint: mean survival time, dose: 400.0 mg/kg/injection, schedule: Q01DX001 (ip), vehicle: saline) 96 % of control.

Consider `CC(=O)Nc1cc(S(=O)(=O)O)cc(N)c1O`, for which the T/C is, setting by setting: (endpoint: mean survival time, dose: 100.0 mg/kg/injection, schedule: Q01DX001 (ip), vehicle: Klucel (hydroxypropylcellulose) (HPC)) 114 % of control; (endpoint: mean survival time, dose: 200.0 mg/kg/injection, schedule: Q01DX001 (ip), vehicle: Klucel (hydroxypropylcellulose) (HPC)) 103 % of control; (endpoint: mean survival time, dose: 400.0 mg/kg/injection, schedule: Q01DX001 (ip), vehicle: Klucel (hydroxypropylcellulose) (HPC)) 106 % of control.

Turning to `CC1COS(=O)O1` (configuration not stated), the T/C (endpoint: mean survival time, dose: 10.0 mg/kg/injection, schedule: Q01DX009 (ip), vehicle: saline with Tween-80) was 96 % of control; the T/C (endpoint: mean survival time, dose: 10.0 mg/kg/injection, schedule: Q04DX003 (ip), vehicle: saline) was 103 % of control; the T/C (endpoint: mean survival time, dose: 20.0 mg/kg/injection, schedule: Q01DX009 (ip), vehicle: saline with Tween-80) was 101 % of control; the T/C (endpoint: mean survival time, dose: 20.0 mg/kg/injection, schedule: Q04DX003 (ip), vehicle: saline) was 97 % of control; the T/C (endpoint: mean survival time, dose: 40.0 mg/kg/injection, schedule: Q01DX009 (ip), vehicle: saline with Tween-80) was 109 % of control; the T/C (endpoint: mean survival time, dose: 40.0 mg/kg/injection, schedule: Q04DX003 (ip), vehicle: saline) was 101 % of control.

`COc1cc(C=Nc2ccc(-c3nc(C)sc3C)cc2)ccc1N(CCCl)CCCl`: the T/C was 155 % of control (endpoint: mean survival time, dose: 25.0 mg/kg/injection, schedule: Q01DX001 (ip), vehicle: carboxymethylcellulose (CMC)) and 97 % of control (endpoint: mean survival time, dose: 50.0 mg/kg/injection, schedule: Q01DX001 (ip), vehicle: carboxymethylcellulose (CMC)).

As for `CC(C)CCCC(C)C1C(O)CC2C3CCC4CC(O)CCC4(C)C3CCC21C` (configuration not stated), the T/C is 103 % of control (endpoint: mean survival time, dose: 25.0 mg/kg/injection, schedule: Q01DX001 (ip), vehicle: saline with Tween-80); 95 % of control under setting [8]; 97 % of control under setting [10].

On to `CCN1CCCSC1=S`, for which the T/C runs as follows: under setting [6], 98 % of control; under setting [7], 103 % of control.

`NC(=O)c1nc(C2OC(CO)C(O)C2O)no1` (configuration not stated): the T/C (endpoint: mean survival time, dose: 12.5 mg/kg/injection, schedule: Q01DX005 (ip), vehicle: water) is 98 % of control; the T/C (endpoint: mean survival time, dose: 25.0 mg/kg/injection, schedule: Q01DX005 (ip), vehicle: water) is 98 % of control; the T/C (endpoint: mean survival time, dose: 50.0 mg/kg/injection, schedule: Q01DX005 (ip), vehicle: water) is 108 % of control; the T/C (endpoint: mean survival time, dose: 100.0 mg/kg/injection, schedule: Q01DX005 (ip), vehicle: water) is 98 % of control; the T/C (endpoint: mean survival time, dose: 200.0 mg/kg/injection, schedule: Q01DX005 (ip), vehicle: water) was 98 % of control.

`Cc1nc2ccccc2n1C`: the T/C under setting [11] is 105 % of control, the T/C under setting [9] was 96 % of control and the T/C under setting [1] is 104 % of control.

With `CCCCOC(=O)c1ccc(NC(=O)Nc2ccccc2)cc1`, the T/C reads like this: under setting [11], 92 % of control; under setting [9], 97 % of control; under setting [1], 93 % of control.

For `CSc1nc(NC2OC(CO)C(O)C(O)C2O)c(Br)c(=O)[nH]1` (configuration not stated), the T/C by setting is: (endpoint: median survival time, dose: 12.5 mg/kg/injection, schedule: Q01DX005 (ip), vehicle: saline with Tween-80) 101 % of control; (endpoint: median survival time, dose: 25.0 mg/kg/injection, schedule: Q01DX005 (ip), vehicle: saline with Tween-80) 101 % of control; (endpoint: median survival time, dose: 50.0 mg/kg/injection, schedule: Q01DX005 (ip), vehicle: saline with Tween-80) 100 % of control; (endpoint: median survival time, dose: 100.0 mg/kg/injection, schedule: Q01DX005 (ip), vehicle: saline with Tween-80) 101 % of control; (endpoint: median survival time, dose: 200.0 mg/kg/injection, schedule: Q01DX005 (ip), vehicle: saline with Tween-80) 100 % of control.
